Assays:
catalase and SOD2 [1] = test: Tissue immunohistostaining of cochlea (spiral ganglia, auditory hair cells) in noise-induced hearing loss animal model; type: in vivo, Balb/c mice; conditions: immunohistochemistry, spiral ganglia (apex, middle, base) and auditory hair cells in cochlea; pretreated 50 mg/kg
Protocol: Confocal Laser Scanning Microscopes and immunostaining were performed for the morphological analysis of spiral ganglia and hair cells located in the organ of Corti in the cochlea in noise-induced hearing loss animal model of Example 1. […] The animal tissues were immobilized and embedded with paraffin to obtain tissue sections. Anti-oxidation-related protein antibodies were primarily attached to the tissue sections, fluorescent antibodies were secondarily attached thereto, and immunohistochemistry was performed to analyze the expression behavior of the anti-oxidation-related proteins. The antibodies were subjected to immunohistochemistry with the antioxidant factors, catalase (Abcam, ab1877, Cambridge, UK), SOD2 (Santa Cruz, Calif., USA), and DAPI (Invitrogen, Carlsbad, Calif.).

HEI-OC1 cells [2] = test: Cytotoxicity of sarpogrelate by WST-1 analysis; type: cell-based; conditions: 0.1, 1, 10 and 25 μM for 24 hours
Protocol: (§1) Auditory cell (HEI-OC1; House-Ear Institute-organ of Corti 1) lines expressing auditory genes were used, and the HEI-OC1 cells were cultured at 33° C. and under 10% CO2 in DMEM medium (Dulbecco's modified Eagle's Medium) containing a high concentration of glutamine, supplemented with 10% fetal bovine serum (FBS) and 25 U/ml of interferon gamma.

HEI-OC1 cells [3] = test: Cytotoxicity and apoptosis caused by H2O2, WST-1 analysis; type: cell-based; conditions: pretreatment 0.1, 1, 10 and 25 μM for 1 hour, then 500 μM H2O2 for 24 hours
Protocol: as §1, with “gamma. A noise-induced hearing loss cell line was established through treatment with H2O2 to produce reactive oxygen species (ROS) by oxidative stress during induction of hearing loss by noise.” for “gamma.”

catalase and SOD2 [4] = test: mRNA expression of antioxidant enzymes by quantitative real-time PCR in H2O2-treated auditory cells; type: cell-based; conditions: pre-treated 1, 10, 25 and 50 μM for 1 hour, 250 μM H2O2 for 24 hours
Protocol: (§2) The mRNA expression was determined by quantitative real-time PCR after extraction of total RNA and synthesis of cDNA. Protein expression was observed by extracting total protein with RIPA buffer, separating proteins in the order of size by SDS-PAGE and then attaching catalase (catalase, Abcam, ab1877, Cambridge, UK)) and SOD2 (superoxide dismutase 2, Santa Cruz, Calif., USA) thereto.

catalase and SOD2 [5] = test: Protein expression of antioxidant enzymes by Western blotting in H2O2-treated auditory cells; type: cell-based; conditions: pre-treated 1, 10, 25 and 50 μM for 1 hour, 250 μM H2O2 for 24 hours
Protocol: as §2

platelet aggregation = conditions: cited from earlier work
[6] = tested on: peripheral arterial occlusion; conditions: rat, injection of lauric acid; cited from earlier work
arterial thrombosis = conditions: mouse vascular endothelial injury; rat polyethylene tube; cited from earlier work
[7] = tested on: rat vascular smooth muscles; conditions: in vitro; cited from earlier work

SMILES: COc1cccc(CCc2ccccc2OCC(CN(C)C)OC(=O)CCC(=O)O)c1 (stereo not drawn) [sarpogrelate, 4-[2-(dimethylamino)-1-({2-[2-(3-methoxyphenyl)ethyl]phenoxy}methyl)ethoxy]-4-oxobutanoic acid]
- expression of SOD2 (catalase and SOD2 [1]): significantly increased
- expression of catalase (catalase and SOD2 [1]): significantly increased
- cytotoxicity of sarpogrelate (HEI-OC1 cells [2]): not to cause cytotoxicity
- apoptosis of auditory cells caused by H2O2 (HEI-OC1 cells [3]): inhibiting apoptosis
- mRNA expression of SOD2 (catalase and SOD2 [4]): increased
- mRNA expression of catalase (catalase and SOD2 [4]): increased
- protein expression of SOD2 (catalase and SOD2 [5]): increased
- protein expression of catalase (catalase and SOD2 [5]): increased
- platelet aggregation by collagen and secondary platelet aggregation by ADP or epinephrine (platelet aggregation): inhibited
- onset of the condition in the peripheral arterial occlusion model [6]: inhibits the onset of the condition
- formation of thrombus in arterial thrombosis models (arterial thrombosis): inhibit the formation of thrombus
- contraction of vascular smooth muscles by serotonin [7]: inhibiting the contraction
